7 compounds from patent US10004701B2, “Methods and compositions for treating infection” (UNIVERSITY OF ROCHESTER, priority 2012, dated 2018) can be followed below.

SMILES strings stand for the structures. Where a name gives a salt, the structure may show the parent alone. Read-outs that look alike come from different tables or passages of the source.

Common to all, as to assay: AK assay 384-well format, Prestwick library screening
Test [1] deals with P. aeruginosa. The class given is cell-based, Pseudomonas aeruginosa. Conditions: 50 μM final drug concentration; for fold induction at 50 µM: Pseudomonas aeruginosa, 3 h.
In test [2] the test system is S. aureus strain USA300-0114. Format: cell-based, Staphylococcus aureus. As to conditions: 50 μM final drug concentration; for fold induction at 50 µM: Staphylococcus aureus, USA300, 3 h.
In test [3] the test system is E. coli. The class given is cell-based, Escherichia coli. Conditions: 50 μM final drug concentration; for fold induction at 50 µM: Escherichia coli, 3 h.
Test [4] concerns E. cloacae. The class given is cell-based, Enterobacter cloacae. As to conditions: 50 μM final drug concentration; for fold induction at 50 µM: Enterobacter cloacae, 3 h.
The test system of test [5] is E. faecium. The class given is cell-based, Enterococcus faecium. As to conditions: 50 μM final drug concentration; for fold induction at 50 µM: Enterococcus faecium, 3 h.
Test [6] deals with A. baumannii strain 98-37-09. Format: cell-based, Acinetobacter baumannii. Conditions: 50 μM final drug concentration; for fold induction at 50 µM: Acinetobacter baumannii, 983709, 3 h.
The subject of test [7] is K. pneumoniae. Format: cell-based, Klebsiella pneumoniae. Conditions: 50 μM final drug concentration; for fold induction at 50 µM: Klebsiella pneumoniae, 3 h.

As for `Nc1ccc(S(=O)(=O)Nc2ccc(Cl)nn2)cc1` [Sulfachloropyridazine], the fold induction at 50 µM was 1 in test [1] (cutoff for positive-scoring molecules 3-fold increase, read-out: AK-based Prestwick Library Screening Results, P. aeruginosa (fold increase in extracellular AK activity)); 1.1 in test [2] (cutoff for positive-scoring molecules 3-fold increase, read-out: AK-based Prestwick Library Screening Results, S. aureus (fold increase in extracellular AK activity)); 1 in test [3] (cutoff for positive-scoring molecules 3-fold increase, read-out: AK-based Prestwick Library Screening Results, E. coli (fold increase in extracellular AK activity)); 1.5 in test [4] (cutoff for positive-scoring molecules 3-fold increase, read-out: AK-based Prestwick Library Screening Results, E. cloacae (fold increase in extracellular AK activity)); 1 in test [5] (cutoff for positive-scoring molecules 3-fold increase, read-out: AK-based Prestwick Library Screening Results, E. faecium (fold increase in extracellular AK activity)); 2.1 in test [6] (cutoff for positive-scoring molecules 3-fold increase, read-out: AK-based Prestwick Library Screening Results, A. baumannii (fold increase in extracellular AK activity)). Also, the fold induction at 50 µM in test [7] (cutoff for positive-scoring molecules 3-fold increase, read-out: AK-based Prestwick Library Screening Results, K. pneumoniae (fold increase in extracellular AK activity)) turned out to be 1.1.

`Nc1ccc(S(=O)(=O)c2ccc(N)cc2)cc1` [Dapsone]: the fold induction at 50 µM in test [1] (384-well format, cutoff for positive-scoring molecules 3-fold increase, read-out: AK-based Prestwick Library Screening Results, P. aeruginosa (increase in extracellular AK activity)) is 0.8; in test [2] (384-well format, cutoff for positive-scoring molecules 3-fold increase, read-out: AK-based Prestwick Library Screening Results, S. aureus (increase in extracellular AK activity)) it was 0.6; in test [3] (384-well format, cutoff for positive-scoring molecules 3-fold increase, read-out: AK-based Prestwick Library Screening Results, E. coli (increase in extracellular AK activity)), 0.8; in test [4] (384-well format, cutoff for positive-scoring molecules 3-fold increase, read-out: AK-based Prestwick Library Screening Results, E. cloacae (increase in extracellular AK activity)), 1.1; in test [5] (384-well format, cutoff for positive-scoring molecules 3-fold increase, read-out: AK-based Prestwick Library Screening Results, E. faecium (increase in extracellular AK activity)) it was 0.9; in test [6] (384-well format, cutoff for positive-scoring molecules 3-fold increase, read-out: AK-based Prestwick Library Screening Results, A. baumannii (increase in extracellular AK activity)), 1.3. In addition, the fold induction at 50 µM in test [7] (384-well format, cutoff for positive-scoring molecules 3-fold increase, read-out: AK-based Prestwick Library Screening Results, K. pneumoniae (increase in extracellular AK activity)) is 0.7.

For the compound `COc1ccc(CN(CCN(C)C)c2ccccn2)cc1` [Pyrilamine maleate], the fold induction at 50 µM in test [1] (planktonic P. aeruginosa, 384-well, […], read-out: AK-based Prestwick Library Screening Results: P. aeruginosa (increase in extracellular AK activity)) came out at 1.1; in test [2] (planktonic S. aureus, 384-well, […], read-out: AK-based Prestwick Library Screening Results: S. aureus (increase in extracellular AK activity)), 1.4; in test [3] (planktonic E. coli, 384-well, […], read-out: AK-based Prestwick Library Screening Results: E. coli (increase in extracellular AK activity)), 1.4; in test [4] (planktonic E. cloacae, 384-well, […], read-out: AK-based Prestwick Library Screening Results: E. cloacae (increase in extracellular AK activity)) it was 1.4; in test [5] (planktonic E. faecium, 384-well, […], read-out: AK-based Prestwick Library Screening Results: E. faecium (increase in extracellular AK activity)), 1.2; in test [6] (planktonic A. baumannii, 384-well, […], read-out: AK-based Prestwick Library Screening Results: A. baumannii (increase in extracellular AK activity)) it was 1.1. In test [7] (planktonic K. pneumoniae, 384-well, […], read-out: AK-based Prestwick Library Screening Results: K. pneumoniae (increase in extracellular AK activity)), the fold induction at 50 µM was 1.

In the case of `O=c1c(O)c(-c2cc(O)c(O)c(O)c2)oc2cc(O)cc(O)c12` [Myricetin], the fold induction at 50 µM in test [1] (planktonic, cutoff for positive 3-fold increase, read-out: AK-based Prestwick Library Screening Results, P. aeruginosa (fold increase in extracellular AK activity)) was found to be 0.9; in test [2] (planktonic, cutoff for positive 3-fold increase, read-out: AK-based Prestwick Library Screening Results, S. aureus (fold increase in extracellular AK activity)) it was 0.5; in test [3] (planktonic, cutoff for positive 3-fold increase, read-out: AK-based Prestwick Library Screening Results, E. coli (fold increase in extracellular AK activity)) it was 0.9; in test [4] (planktonic, cutoff for positive 3-fold increase, read-out: AK-based Prestwick Library Screening Results, E. cloacae (fold increase in extracellular AK activity)), 1.2; in test [5] (planktonic, cutoff for positive 3-fold increase, read-out: AK-based Prestwick Library Screening Results, E. faecium (fold increase in extracellular AK activity)) it was 0.8; in test [6] (planktonic, cutoff for positive 3-fold increase, read-out: AK-based Prestwick Library Screening Results, A. baumannii (fold increase in extracellular AK activity)), 0.8. In test [7] (planktonic, cutoff for positive 3-fold increase, read-out: AK-based Prestwick Library Screening Results, K. pneumoniae (fold increase in extracellular AK activity)), the fold induction at 50 µM is 0.9.

As for `CC1=C2[C@H]3OC(=O)[C@@H](C)[C@@H]3CC[C@@]2(C)C=CC1=O` [alpha-Santonin], the fold induction at 50 µM in test [1] (planktonic P. aeruginosa, […], read-out: AK-based Prestwick library screening result, P. aeruginosa (fold increase in extracellular AK activity)) stood at 0.9; in test [2] (planktonic S. aureus, […], read-out: AK-based Prestwick library screening result, S. aureus (fold increase in extracellular AK activity)), 0.9; in test [3] (planktonic E. coli, […], read-out: AK-based Prestwick library screening result, E. coli (fold increase in extracellular AK activity)), 0.8; in test [4] (planktonic E. cloacae, […], read-out: AK-based Prestwick library screening result, E. cloacae (fold increase in extracellular AK activity)) it was 0.9; in test [5] (planktonic E. faecium, […], read-out: AK-based Prestwick library screening result, E. faecium (fold increase in extracellular AK activity)) it was 1; in test [6] (planktonic A. baumannii, […], read-out: AK-based Prestwick library screening result, A. baumannii (fold increase in extracellular AK activity)), 0.8. The fold induction at 50 µM in test [7] (planktonic K. pneumoniae, […], read-out: AK-based Prestwick library screening result, K. pneumoniae (fold increase in extracellular AK activity)) is 0.7.

As to `C=CC[N@@+]12CC[C@@]34c5ccccc5N5/C=C6/[C@H]7C[C@H]8[C@@]9(CC[N@@+]8(CC=C)C/C7=C/CO)c7ccccc7N(/C=C(/[C@@H](C[C@@H]31)/C(=C\CO)C2)[C@H]54)[C@@H]69.[Cl-].[Cl-]` [Alcuronium chloride], the “AK-based Prestwick library screening result, P. aeruginosa (fold increase in extracellular AK activity)” value in test [1] (planktonic P. aeruginosa, […]) is given as 1.0. Further, the “AK-based Prestwick library screening result, S. aureus (fold increase in extracellular AK activity)” value in test [2] (planktonic S. aureus, […]) came to 1.2. Further, the “AK-based Prestwick library screening result, E. coli (fold increase in extracellular AK activity)” value in test [3] (planktonic E. coli, […]) was 1.4. The “AK-based Prestwick library screening result, E. cloacae (fold increase in extracellular AK activity)” value in test [4] (planktonic E. cloacae, […]) was 2.2. The “AK-based Prestwick library screening result, E. faecium (fold increase in extracellular AK activity)” value in test [5] (planktonic E. faecium, […]) is recorded as 1.0. In test [6] (planktonic A. baumannii, […]), the “AK-based Prestwick library screening result, A. baumannii (fold increase in extracellular AK activity)” value stood at 1.4. Moreover, in test [7] (planktonic K. pneumoniae, […]), the “AK-based Prestwick library screening result, K. pneumoniae (fold increase in extracellular AK activity)” value was 1.0.

For the compound `Nc1ncnc2c1ncn2[C@@H]1O[C@H](COP(=O)(O)O)[C@@H](O)[C@H]1O` [Adenosine 5′-monophosphate monohydrate], the fold induction at 50 µM in test [1] (planktonic P. aeruginosa, […], read-out: AK-based Prestwick Library Screening Results, P. aeruginosa (increase in extracellular AK activity)) amounted to 0.8; in test [2] (planktonic S. aureus, […], read-out: AK-based Prestwick Library Screening Results, S. aureus (increase in extracellular AK activity)), 0.6; in test [3] (planktonic E. coli, […], read-out: AK-based Prestwick Library Screening Results, E. coli (increase in extracellular AK activity)) it was 0.8; in test [4] (planktonic E. cloacae, […], read-out: AK-based Prestwick Library Screening Results, E. cloacae (increase in extracellular AK activity)) it was 1.2; in test [5] (planktonic E. faecium, […], read-out: AK-based Prestwick Library Screening Results, E. faecium (increase in extracellular AK activity)), 0.8; in test [6] (planktonic A. baumannii, […], read-out: AK-based Prestwick Library Screening Results, A. baumannii (increase in extracellular AK activity)) it was 0.7. The fold induction at 50 µM in test [7] (planktonic K. pneumoniae, […], read-out: AK-based Prestwick Library Screening Results, K. pneumoniae (increase in extracellular AK activity)) is 0.6.
